Source: ChEMBL document CHEMBL5370649, “Novel Coumarin Derivatives Inhibit the Quorum Sensing System and Iron Homeostasis as Antibacterial Synergists against Pseudomonas aeruginosa” (J Med Chem, 2023)
pIC50: −log10 of the molar value. Calls of active or inactive are those of the source. No cut-off for these calls is given here.

What was measured:
Pseudomonas aeruginosa [1] = experiment: Antibacterial activity against Pseudomonas aeruginosa PAO1 in ABTGC medium assessed as bacterial growth inhibition incubated for 16 hrs; assay type: functional
Pseudomonas aeruginosa [2] = experiment: Antibiofilm activity against Pseudomonas aeruginosa PAO1 in ABTGC medium assessed as inhibition of biofilm formation incubated for 24 hrs by crystal violet staining based absorbance assay; assay type: functional, organism-based; conditions: PAO1, 24 h
Pseudomonas aeruginosa [3] = experiment: Antibiofilm activity against Pseudomonas aeruginosa PAO1 assessed as inhibition of biofilm formation at 0.5 to 10 uM incubated for 24 hrs by SYTO9 and PI staining based 3D fluorescence confocal microscopy imaging analysis; assay type: functional, organism-based; conditions: dose 0.5-10 µM
[4] = target: T1, Transcriptional activator protein LasR (Pseudomonas aeruginosa (strain ATCC 15692 / PAO1 / 1C / PRS 101 / LMG12228)) (UniProt P25084); experiment: Inhibition of LasR-mediated quorum sensing system in Pseudomonas aeruginosa PAO1 assessed as inhibition of elastase production at 1.25 to 20 uM incubated for 24 hrs using BODIPY-FL-labeled DQ elastin conjugate as substrate by fluorometric method; conditions: dose 1.25-20 µM
T1 sequence (whole entry): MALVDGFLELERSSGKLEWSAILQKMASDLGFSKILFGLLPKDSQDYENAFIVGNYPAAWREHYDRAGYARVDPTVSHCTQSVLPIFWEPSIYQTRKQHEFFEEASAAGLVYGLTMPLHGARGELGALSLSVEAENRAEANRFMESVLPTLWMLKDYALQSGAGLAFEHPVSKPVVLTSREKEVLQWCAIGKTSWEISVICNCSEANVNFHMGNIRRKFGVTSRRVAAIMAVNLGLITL

Pseudomonas aeruginosa [5] = experiment: Inhibition of iron homeostasis in Pseudomonas aeruginosa PAO1 in ABTGC medium assessed as increase in iron-free pyoverdine production at 1.25 to 20 uM in presence of FeCl3 by fluorescence based microplate reader analysis; assay type: functional, organism-based; conditions: dose 1.25-20 µM
Pseudomonas aeruginosa [6] = experiment: Inhibition of iron homeostasis in Pseudomonas aeruginosa PAO1 in ABTGC medium assessed as decrease in iron level at 1.25 to 20 uM in presence of FeCl3 by fluorescence based microplate reader analysis (Rvb= 9.6+/-2.00 microM); assay type: functional; conditions: dose 1.25-20 µM
Pseudomonas aeruginosa [7] = experiment: Antibiofilm activity against Pseudomonas aeruginosa PAO1 pvds-defective mutant assessed as inhibition of biofilm formation at 1.25 to 20 uM incubated for 24 hrs by crystal violet staining based absorbance assay; assay type: functional, organism-based; conditions: dose 1.25-20 µM
Pseudomonas aeruginosa [8] = experiment: Upregulation of pvdF expression in Pseudomonas aeruginosa PAO1 at 20 uM incubated for 24 hrs by RNA sequencing analysis; assay type: functional
Pseudomonas aeruginosa [9] = experiment: Upregulation of fpvA expression in Pseudomonas aeruginosa PAO1 at 20 uM incubated for 24 hrs by RNA sequencing analysis; assay type: functional
Pseudomonas aeruginosa [10] = experiment: Downregulation of trpG expression in Pseudomonas aeruginosa PAO1 at 20 uM incubated for 24 hrs by RNA sequencing analysis; assay type: functional
Pseudomonas aeruginosa [11] = experiment: Downregulation of pqsA expression in Pseudomonas aeruginosa PAO1 at 20 uM incubated for 24 hrs by RNA sequencing analysis; assay type: functional
Pseudomonas aeruginosa [12] = experiment: Downregulation of rhlA expression in Pseudomonas aeruginosa PAO1 at 20 uM incubated for 24 hrs by RNA sequencing analysis; assay type: functional
Pseudomonas aeruginosa [13] = experiment: Downregulation of rhlB expression in Pseudomonas aeruginosa PAO1 at 20 uM incubated for 24 hrs by RNA sequencing analysis; assay type: functional
Pseudomonas aeruginosa [14] = experiment: Downregulation of pilB expression in Pseudomonas aeruginosa PAO1 at 20 uM incubated for 24 hrs by RNA sequencing analysis; assay type: functional
Pseudomonas aeruginosa [15] = experiment: Downregulation of pilI expression in Pseudomonas aeruginosa PAO1 at 20 uM incubated for 24 hrs by RNA sequencing analysis; assay type: functional
Pseudomonas aeruginosa [16] = experiment: Downregulation of filA expression in Pseudomonas aeruginosa PAO1 at 20 uM incubated for 24 hrs by RNA sequencing analysis; assay type: functional
Pseudomonas aeruginosa [17] = experiment: Downregulation of phyllo expression in Pseudomonas aeruginosa PAO1 at 20 uM incubated for 24 hrs by RNA sequencing analysis; assay type: functional
Pseudomonas aeruginosa [18] = experiment: Downregulation of mexE expression in Pseudomonas aeruginosa PAO1 at 20 uM incubated for 24 hrs by RNA sequencing analysis; assay type: functional
Pseudomonas aeruginosa [19] = experiment: Antibiofilm activity against in Pseudomonas aeruginosa PAO1 assessed as pilus formation at 5 to 40 uM incubated for 16 hrs by SEM analysis; assay type: functional, organism-based; conditions: dose 5-40 µM
A549 = experiment: Cytotoxicity against human A549 cells assessed as reduction in cell viability upto 50 uM incubated for 24 hrs by MTT assay; assay type: toxicity, cell-based; conditions: a549, 24 h
Pseudomonas aeruginosa [20] = experiment: Synergistic antibacterial activity against Pseudomonas aeruginosa PAO1 infected in Balb/c mouse wound infection model assessed as reduction in bacterial infection at 50 uM,TOP QD for 3 days in presence of Ciprofloxacin by CFU assay; assay type: functional; design: scale not given: the % may be the effect or the level left; conditions: time 3 day
[21] = Toxicity in Balb/c mouse wound infection model infected with Pseudomonas aeruginosa PAO1 assessed as morphological changes in heart at 50 uM,TOP for 3 days in Ciprofloxacin by H and E staining based analysis; assay type: tissue-based; conditions: in vivo, topical_or_ocular, 72 h, time 3 day
[22] = Toxicity in Balb/c mouse wound infection model infected with Pseudomonas aeruginosa PAO1 assessed as morphological changes in spleen at 50 uM,TOP for 3 days in Ciprofloxacin by H and E staining based analysis; assay type: tissue-based; conditions: in vivo, topical_or_ocular, 72 h, time 3 day
[23] = Toxicity in Balb/c mouse wound infection model infected with Pseudomonas aeruginosa PAO1 assessed as morphological changes in lung at 50 uM,TOP for 3 days in Ciprofloxacin by H and E staining based analysis; assay type: tissue-based; conditions: in vivo, topical_or_ocular, 72 h, time 3 day
[24] = Toxicity in Balb/c mouse wound infection model infected with Pseudomonas aeruginosa PAO1 assessed as morphological changes in kidney at 50 uM,TOP for 3 days in Ciprofloxacin by H and E staining based analysis; assay type: tissue-based; conditions: in vivo, topical_or_ocular, 72 h, time 3 day
[25] = Toxicity in Balb/c mouse wound infection model infected with Pseudomonas aeruginosa PAO1 assessed as morphological changes in heart at 50 uM,TOP for 3 days in Tobramycin by H and E staining based analysis; assay type: tissue-based; conditions: in vivo, topical_or_ocular, 72 h, time 3 day
[26] = Toxicity in Balb/c mouse wound infection model infected with Pseudomonas aeruginosa PAO1 assessed as morphological changes in liver at 50 uM,TOP for 3 days in Tobramycin by H and E staining based analysis; assay type: tissue-based; conditions: in vivo, topical_or_ocular, 72 h, time 3 day
[27] = Toxicity in Balb/c mouse wound infection model infected with Pseudomonas aeruginosa PAO1 assessed as morphological changes in kidney at 50 uM,TOP for 3 days in Tobramycin by H and E staining based analysis; assay type: tissue-based; conditions: in vivo, topical_or_ocular, 72 h, time 3 day

Compound: Cc1ccc2oc(=O)cc(OCCCCCCC(=O)NO)c2c1
- MIC (Pseudomonas aeruginosa [1]): > 256 µM
- pIC50 (Pseudomonas aeruginosa [2]): 5.44
- inhibition (Pseudomonas aeruginosa [3]): Active
- inhibition [4]: Dose-Dependent Effect
- inhibition (Pseudomonas aeruginosa [5]): Active
- Activity (Pseudomonas aeruginosa [6]): 6.96 µM
- inhibition (Pseudomonas aeruginosa [7]): inactive
- Activity (Pseudomonas aeruginosa [8]): Active
- Activity (Pseudomonas aeruginosa [9]): Active
- Activity (Pseudomonas aeruginosa [10]): Active
- Activity (Pseudomonas aeruginosa [11]): Active
- Activity (Pseudomonas aeruginosa [12]): Active
- Activity (Pseudomonas aeruginosa [13]): Active
- Activity (Pseudomonas aeruginosa [14]): Active
- Activity (Pseudomonas aeruginosa [15]): Active
- Activity (Pseudomonas aeruginosa [16]): Active
- Activity (Pseudomonas aeruginosa [17]): Active
- Activity (Pseudomonas aeruginosa [18]): Active
- Activity (Pseudomonas aeruginosa [19]): Dose-Dependent Effect
- Activity (A549): Non-Toxic
- Activity (Pseudomonas aeruginosa [20]): 100%
- Activity [21]: Non-Toxic
- Activity [22]: Non-Toxic
- Activity [23]: Non-Toxic
- Activity [24]: Non-Toxic
- Activity [25]: Non-Toxic
- Activity [26]: Non-Toxic
- Activity [27]: Non-Toxic
